Publication PMC5216056 (Nature Communications, 2017)
Read-outs that look alike come from different tables or passages of the source.

Assays:
[1] = biological target: T1, A1 (h) (Homo sapiens, UniProt P30542); test: CEREP panel; assay type: binding; conditions: for inhibition at 10 µM: read-out: % inhibition A1 (h)
T1 construct: CEREP
T1 sequence (P30542 1-326): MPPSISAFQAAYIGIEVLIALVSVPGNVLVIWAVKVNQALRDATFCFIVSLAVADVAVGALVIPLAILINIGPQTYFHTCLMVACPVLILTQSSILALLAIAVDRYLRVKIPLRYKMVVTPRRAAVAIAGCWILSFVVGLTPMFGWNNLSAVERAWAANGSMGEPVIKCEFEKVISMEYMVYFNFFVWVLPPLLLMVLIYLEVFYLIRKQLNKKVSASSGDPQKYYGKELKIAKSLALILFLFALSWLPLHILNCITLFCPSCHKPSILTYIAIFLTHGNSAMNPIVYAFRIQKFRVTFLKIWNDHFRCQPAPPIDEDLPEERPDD

[2] = biological target: T2, AT2 (h) (Homo sapiens, UniProt P50052); test: CEREP panel; assay type: binding; conditions: for % inhibition AT2 (h): 10 µM
T2 construct: CEREP
T2 sequence (P50052 1-363): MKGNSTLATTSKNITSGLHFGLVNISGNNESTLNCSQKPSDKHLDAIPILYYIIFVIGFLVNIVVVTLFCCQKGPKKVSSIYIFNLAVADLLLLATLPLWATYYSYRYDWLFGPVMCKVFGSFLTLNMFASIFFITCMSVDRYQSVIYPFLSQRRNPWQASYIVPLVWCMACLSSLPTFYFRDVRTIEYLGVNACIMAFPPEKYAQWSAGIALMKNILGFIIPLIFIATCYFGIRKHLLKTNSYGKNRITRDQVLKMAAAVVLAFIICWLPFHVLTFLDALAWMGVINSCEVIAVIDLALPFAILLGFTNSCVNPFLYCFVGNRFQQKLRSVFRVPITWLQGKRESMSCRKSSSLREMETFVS

[3] = biological target: T3, beta 2 (h) (Homo sapiens, UniProt P07550); test: CEREP panel; assay type: binding; conditions: for % inhibition beta 2 (h): 10 µM
T3 construct: CEREP

[4] = biological target: T4, CB1 (h) (Homo sapiens, UniProt P21554); test: biochemical; assay type: binding; conditions: for % inhibition CB1 (h): 10 µM
T4 construct: CEREP (contract assay)

[5] = biological target: T5, NK1 (h) (Homo sapiens, UniProt P25103); test: CEREP panel; assay type: binding; conditions: for % inhibition NK1 (h): 10 µM
T5 construct: CEREP (contract assay)

[6] = biological target: T6, NK3 (h) (Homo sapiens, UniProt P29371); test: CEREP panel; assay type: binding; conditions: for % inhibition NK3 (h): 10 µM
T6 construct: CEREP (contract assay)
T6 sequence (P29371 1-465): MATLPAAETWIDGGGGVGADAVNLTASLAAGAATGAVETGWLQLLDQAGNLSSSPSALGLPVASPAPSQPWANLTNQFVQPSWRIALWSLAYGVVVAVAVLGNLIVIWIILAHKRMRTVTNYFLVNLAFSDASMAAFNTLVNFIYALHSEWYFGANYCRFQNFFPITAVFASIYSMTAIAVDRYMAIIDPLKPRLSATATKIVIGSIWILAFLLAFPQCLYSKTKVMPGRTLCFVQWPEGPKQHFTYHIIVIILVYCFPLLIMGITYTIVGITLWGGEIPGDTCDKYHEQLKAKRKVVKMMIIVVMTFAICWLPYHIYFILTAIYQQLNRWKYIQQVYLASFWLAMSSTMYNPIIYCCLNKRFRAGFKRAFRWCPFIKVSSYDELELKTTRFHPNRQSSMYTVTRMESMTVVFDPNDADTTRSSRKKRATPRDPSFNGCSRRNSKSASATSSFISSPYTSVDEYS

[7] = biological target: T7, NOP (ORL1) (h) (Homo sapiens, UniProt P41146); test: CEREP panel; assay type: binding; conditions: for % inhibition NOP (ORL1) (h): 10 µM
T7 construct: CEREP (contract assay)

[8] = biological target: T8, NTS1 (NT1) (h) (Homo sapiens, UniProt P30989); test: CEREP panel; assay type: binding; conditions: for % inhibition NTS1 (NT1) (h): 10 µM
T8 construct: CEREP (contract assay)

[9] = tested on: P2X; test: CEREP panel; assay type: binding; conditions: 10 µM
[10] = biological target: T9, PAC1 (PACAP) (h) (Homo sapiens, UniProt P41586); test: CEREP panel; assay type: binding; conditions: for % inhibition PAC1 (PACAP) (h): 10 µM
T9 construct: CEREP (contract assay)
T9 sequence (P41586 21-468): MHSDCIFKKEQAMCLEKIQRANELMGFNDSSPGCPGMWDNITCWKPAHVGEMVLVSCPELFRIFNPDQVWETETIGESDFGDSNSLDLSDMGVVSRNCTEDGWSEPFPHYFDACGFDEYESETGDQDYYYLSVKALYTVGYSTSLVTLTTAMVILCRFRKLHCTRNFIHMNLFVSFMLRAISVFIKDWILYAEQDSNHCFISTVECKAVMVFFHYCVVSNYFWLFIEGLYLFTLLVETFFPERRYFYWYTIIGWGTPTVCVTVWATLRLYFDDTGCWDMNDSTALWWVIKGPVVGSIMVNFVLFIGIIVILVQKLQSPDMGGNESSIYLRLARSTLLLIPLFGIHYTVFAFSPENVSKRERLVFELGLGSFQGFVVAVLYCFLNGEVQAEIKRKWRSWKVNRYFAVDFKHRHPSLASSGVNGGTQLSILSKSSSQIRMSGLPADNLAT

[11] = biological target: T10, PPARα (h) (Homo sapiens, UniProt Q07869); test: CEREP panel; assay type: binding; conditions: for inhibition at 10 µM: read-out: % inhibition PPARα (h)
T10 construct: CEREP (contract assay)
T10 sequence (Q07869 1-468): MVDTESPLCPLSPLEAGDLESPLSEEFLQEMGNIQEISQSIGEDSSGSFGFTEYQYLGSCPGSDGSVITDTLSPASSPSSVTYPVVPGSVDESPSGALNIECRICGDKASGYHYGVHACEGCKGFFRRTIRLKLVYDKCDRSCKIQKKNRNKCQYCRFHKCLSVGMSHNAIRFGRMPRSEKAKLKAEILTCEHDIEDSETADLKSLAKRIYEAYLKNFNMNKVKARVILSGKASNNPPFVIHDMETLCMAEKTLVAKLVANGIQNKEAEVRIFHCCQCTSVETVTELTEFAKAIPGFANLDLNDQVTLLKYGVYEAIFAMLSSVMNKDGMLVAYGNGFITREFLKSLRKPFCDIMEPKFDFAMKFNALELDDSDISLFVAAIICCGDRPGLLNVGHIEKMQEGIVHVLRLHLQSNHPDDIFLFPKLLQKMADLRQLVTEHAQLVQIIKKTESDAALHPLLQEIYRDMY

[12] = biological target: T11, 5-HT2A (h) (Homo sapiens, UniProt P28223); test: CEREP panel; assay type: binding; conditions: for % inhibition 5-HT2A (h): 10 µM
T11 construct: CEREP (contract assay)

[13] = biological target: T12, kappa (KOP) (Rattus norvegicus, UniProt P34975); test: CEREP panel; assay type: binding; conditions: for % inhibition kappa (KOP): 10 µM
T12 construct: CEREP (contract assay)

[14] = biological target: T13, FP (h) (Homo sapiens, UniProt P43088); test: CEREP panel; assay type: binding; conditions: for % inhibition FP (h): 10 µM
T13 construct: CEREP (contract assay)

[15] = biological target: human P-gp (Homo sapiens, UniProt P08183); conditions: efflux ratio
Chain of human P-gp (P08183 whole entry): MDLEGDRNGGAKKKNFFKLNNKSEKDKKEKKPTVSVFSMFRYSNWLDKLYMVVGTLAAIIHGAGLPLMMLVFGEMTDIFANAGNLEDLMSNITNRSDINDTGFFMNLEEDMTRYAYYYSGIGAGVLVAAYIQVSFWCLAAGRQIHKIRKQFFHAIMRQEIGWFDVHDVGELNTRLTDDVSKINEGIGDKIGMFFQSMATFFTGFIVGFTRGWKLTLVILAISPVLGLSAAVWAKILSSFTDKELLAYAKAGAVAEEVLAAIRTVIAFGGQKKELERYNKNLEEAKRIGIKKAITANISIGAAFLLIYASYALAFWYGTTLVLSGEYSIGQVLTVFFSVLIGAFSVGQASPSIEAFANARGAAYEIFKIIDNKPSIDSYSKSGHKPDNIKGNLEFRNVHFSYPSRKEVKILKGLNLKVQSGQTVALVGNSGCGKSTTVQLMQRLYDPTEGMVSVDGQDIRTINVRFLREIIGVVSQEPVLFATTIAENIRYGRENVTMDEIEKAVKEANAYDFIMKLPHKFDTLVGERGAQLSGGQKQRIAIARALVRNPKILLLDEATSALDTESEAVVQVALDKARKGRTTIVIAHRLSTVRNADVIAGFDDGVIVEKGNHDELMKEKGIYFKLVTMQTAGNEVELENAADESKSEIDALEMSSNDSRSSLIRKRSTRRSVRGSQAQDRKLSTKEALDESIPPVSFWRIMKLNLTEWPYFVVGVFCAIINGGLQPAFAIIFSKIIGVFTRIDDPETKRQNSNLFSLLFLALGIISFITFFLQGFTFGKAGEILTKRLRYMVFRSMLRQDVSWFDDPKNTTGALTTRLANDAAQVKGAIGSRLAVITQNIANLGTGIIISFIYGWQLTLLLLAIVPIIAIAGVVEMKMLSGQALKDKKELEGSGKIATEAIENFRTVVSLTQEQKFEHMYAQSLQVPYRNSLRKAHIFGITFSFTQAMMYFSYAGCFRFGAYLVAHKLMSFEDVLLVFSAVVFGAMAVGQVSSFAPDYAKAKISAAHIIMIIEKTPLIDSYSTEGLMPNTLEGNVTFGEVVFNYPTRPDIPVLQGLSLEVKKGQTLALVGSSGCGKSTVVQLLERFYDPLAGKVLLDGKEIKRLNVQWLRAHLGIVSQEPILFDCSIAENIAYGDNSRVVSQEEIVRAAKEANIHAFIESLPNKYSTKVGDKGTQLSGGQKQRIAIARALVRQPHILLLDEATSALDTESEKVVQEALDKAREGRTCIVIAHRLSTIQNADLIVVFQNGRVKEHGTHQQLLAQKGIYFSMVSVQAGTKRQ

T7 sequence (P41146 whole entry): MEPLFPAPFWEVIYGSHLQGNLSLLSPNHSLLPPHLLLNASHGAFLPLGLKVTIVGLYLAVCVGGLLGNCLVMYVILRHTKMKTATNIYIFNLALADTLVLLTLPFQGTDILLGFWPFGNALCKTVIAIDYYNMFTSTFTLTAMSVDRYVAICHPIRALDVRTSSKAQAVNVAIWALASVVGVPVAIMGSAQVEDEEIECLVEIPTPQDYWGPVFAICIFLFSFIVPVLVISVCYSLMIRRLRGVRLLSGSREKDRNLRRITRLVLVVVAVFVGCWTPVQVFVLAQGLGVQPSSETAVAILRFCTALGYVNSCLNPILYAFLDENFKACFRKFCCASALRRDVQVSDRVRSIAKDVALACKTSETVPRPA
T13 sequence (P43088 whole entry): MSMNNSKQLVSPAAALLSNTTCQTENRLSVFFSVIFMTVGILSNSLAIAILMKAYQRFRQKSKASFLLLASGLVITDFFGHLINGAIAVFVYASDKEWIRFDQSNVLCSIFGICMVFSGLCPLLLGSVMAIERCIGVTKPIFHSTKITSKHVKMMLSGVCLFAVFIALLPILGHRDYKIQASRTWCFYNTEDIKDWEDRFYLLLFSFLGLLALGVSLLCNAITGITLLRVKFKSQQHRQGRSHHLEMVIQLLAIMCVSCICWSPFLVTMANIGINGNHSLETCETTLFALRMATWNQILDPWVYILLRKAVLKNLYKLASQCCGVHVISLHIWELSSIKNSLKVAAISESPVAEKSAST
T4 sequence (P21554 whole entry): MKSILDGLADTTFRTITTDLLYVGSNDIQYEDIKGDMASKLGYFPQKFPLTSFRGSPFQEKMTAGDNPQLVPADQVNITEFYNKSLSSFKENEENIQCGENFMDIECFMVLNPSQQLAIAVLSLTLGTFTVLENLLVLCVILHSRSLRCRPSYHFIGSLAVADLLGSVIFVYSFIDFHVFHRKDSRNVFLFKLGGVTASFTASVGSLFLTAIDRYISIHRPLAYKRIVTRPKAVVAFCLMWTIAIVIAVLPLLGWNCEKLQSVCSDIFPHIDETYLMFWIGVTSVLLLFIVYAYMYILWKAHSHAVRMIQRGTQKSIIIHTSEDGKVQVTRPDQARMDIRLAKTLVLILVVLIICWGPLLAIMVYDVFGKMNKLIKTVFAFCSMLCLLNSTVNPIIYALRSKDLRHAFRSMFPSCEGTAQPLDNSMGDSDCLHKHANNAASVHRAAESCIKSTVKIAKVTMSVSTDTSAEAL
T11 sequence (P28223 whole entry): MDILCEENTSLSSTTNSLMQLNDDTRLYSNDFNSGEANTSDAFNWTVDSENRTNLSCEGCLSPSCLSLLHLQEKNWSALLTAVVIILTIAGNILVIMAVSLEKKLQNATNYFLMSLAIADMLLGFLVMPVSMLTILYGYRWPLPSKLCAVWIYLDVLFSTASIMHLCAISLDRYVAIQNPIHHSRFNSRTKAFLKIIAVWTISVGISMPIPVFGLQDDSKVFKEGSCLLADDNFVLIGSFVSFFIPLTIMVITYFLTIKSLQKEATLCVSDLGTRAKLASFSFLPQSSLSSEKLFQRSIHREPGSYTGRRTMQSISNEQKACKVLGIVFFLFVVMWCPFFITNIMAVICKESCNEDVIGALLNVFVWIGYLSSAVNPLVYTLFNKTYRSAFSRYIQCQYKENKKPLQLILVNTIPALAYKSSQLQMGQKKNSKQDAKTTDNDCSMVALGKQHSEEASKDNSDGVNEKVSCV
T3 sequence (P07550 whole entry): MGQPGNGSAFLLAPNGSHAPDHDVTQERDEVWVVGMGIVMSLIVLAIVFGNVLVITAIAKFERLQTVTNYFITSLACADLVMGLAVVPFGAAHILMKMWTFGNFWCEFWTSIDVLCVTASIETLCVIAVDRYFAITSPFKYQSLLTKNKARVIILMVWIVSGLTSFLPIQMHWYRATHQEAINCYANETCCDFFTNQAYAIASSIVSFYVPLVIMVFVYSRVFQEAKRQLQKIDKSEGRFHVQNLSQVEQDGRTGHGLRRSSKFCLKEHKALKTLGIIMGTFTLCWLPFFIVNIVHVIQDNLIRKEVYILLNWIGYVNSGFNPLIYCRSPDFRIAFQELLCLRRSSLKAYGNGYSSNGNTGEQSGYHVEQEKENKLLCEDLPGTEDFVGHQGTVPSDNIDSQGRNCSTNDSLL
T12 sequence (P34975 whole entry): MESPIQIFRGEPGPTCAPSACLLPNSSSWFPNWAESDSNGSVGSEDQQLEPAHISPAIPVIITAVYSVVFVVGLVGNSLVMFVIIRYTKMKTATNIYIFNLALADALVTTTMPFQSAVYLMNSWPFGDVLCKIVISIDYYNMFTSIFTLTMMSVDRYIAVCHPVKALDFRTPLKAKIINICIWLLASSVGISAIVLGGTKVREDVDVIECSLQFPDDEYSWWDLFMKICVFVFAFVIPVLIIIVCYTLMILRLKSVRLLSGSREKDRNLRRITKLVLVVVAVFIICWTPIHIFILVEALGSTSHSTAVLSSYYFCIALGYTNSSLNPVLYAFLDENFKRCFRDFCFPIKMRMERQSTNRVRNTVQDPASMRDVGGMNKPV
T8 sequence (P30989 whole entry): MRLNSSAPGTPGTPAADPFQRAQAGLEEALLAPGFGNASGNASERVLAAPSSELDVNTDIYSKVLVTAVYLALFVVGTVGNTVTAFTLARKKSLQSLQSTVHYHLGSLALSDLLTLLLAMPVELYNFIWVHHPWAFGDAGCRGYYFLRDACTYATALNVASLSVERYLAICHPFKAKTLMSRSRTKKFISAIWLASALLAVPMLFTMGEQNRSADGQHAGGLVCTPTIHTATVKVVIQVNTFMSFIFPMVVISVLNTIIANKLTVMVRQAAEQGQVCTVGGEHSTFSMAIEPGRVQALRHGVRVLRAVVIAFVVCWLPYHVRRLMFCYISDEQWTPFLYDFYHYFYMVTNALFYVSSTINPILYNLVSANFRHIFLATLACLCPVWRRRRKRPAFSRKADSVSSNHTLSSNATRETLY
T5 sequence (P25103 whole entry): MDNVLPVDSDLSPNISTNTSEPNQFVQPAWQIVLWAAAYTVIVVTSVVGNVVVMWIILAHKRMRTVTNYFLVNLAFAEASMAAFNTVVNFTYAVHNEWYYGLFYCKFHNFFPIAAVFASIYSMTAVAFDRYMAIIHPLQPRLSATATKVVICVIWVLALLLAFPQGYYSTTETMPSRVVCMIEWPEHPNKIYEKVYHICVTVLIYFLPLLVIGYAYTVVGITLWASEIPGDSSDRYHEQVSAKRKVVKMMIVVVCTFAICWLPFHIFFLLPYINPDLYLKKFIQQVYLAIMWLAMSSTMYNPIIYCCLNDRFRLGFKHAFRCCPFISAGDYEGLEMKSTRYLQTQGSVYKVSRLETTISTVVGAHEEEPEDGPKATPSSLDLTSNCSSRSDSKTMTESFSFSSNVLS

Compound: CCCCCCC(C)(C)c1cc(OC)c([C@@H]2C=C(CO)[C@@H]3C[C@H]2C3(C)C)c(OC)c1 [HU308]
- inhibition at 10 µM [1]: 5%
- inhibition at 10 µM ([2]; read-out: % inhibition AT2 (h)): 42%
- inhibition at 10 µM ([3]; read-out: % inhibition beta 2 (h)): -30%
- inhibition at 10 µM ([4]; read-out: % inhibition CB1 (h)): 18%
- inhibition at 10 µM ([5]; read-out: % inhibition NK1 (h)): 29%
- inhibition at 10 µM ([6]; read-out: % inhibition NK3 (h)): 13%
- inhibition at 10 µM ([7]; read-out: % inhibition NOP (ORL1) (h)): -5%
- inhibition at 10 µM ([8]; read-out: % inhibition NTS1 (NT1) (h)): -23%
- % inhibition P2X [9]: 2%
- inhibition at 10 µM ([10]; read-out: % inhibition PAC1 (PACAP) (h)): -3%
- inhibition at 10 µM [11]: -21%

Compound: CCCn1c(C)c(C(=O)c2cccc3ccccc23)c2ccccc21 [JWH015]
- % inhibition A1 (h) ([1]; 10 µM): 10%
- % inhibition PPARα (h) ([11]; 10 µM): -16%
- % inhibition 5-HT2A (h) [12]: 56%
- % inhibition kappa (KOP) [13]: 53%

Compound: Cc1c(C(=O)NN2CCCCC2)nn(-c2ccc(Cl)cc2Cl)c1-c1ccc(I)cc1 [AM251]
- % inhibition A1 (h) ([1]; 10 µM): 27%
- % inhibition FP (h) [14]: 94%
- % inhibition kappa (KOP) [13]: 94%

Compound: CCCCCCC(C)(C)c1cc(OC)c(C2=C[C@H]3CC[C@]2(CO)C3(C)C)c(OC)c1 [HU910]
- % inhibition A1 (h) ([1]; 10 µM): 23%
- % inhibition AT2 (h) [2]: 13%
- % inhibition beta 2 (h) [3]: -5%
- % inhibition CB1 (h) [4]: 71%
- % inhibition NK1 (h) [5]: 42%
- % inhibition NK3 (h) [6]: 24%
- % inhibition NOP (ORL1) (h) [7]: 4%
- % inhibition NTS1 (NT1) (h) [8]: -19%
- % inhibition P2X [9]: -10%
- % inhibition PAC1 (PACAP) (h) [10]: 0%
- % inhibition PPARα (h) ([11]; 10 µM): -28%
- Plasma protein binding mouse: 4.1 %free
- P-gp (ER) human [15]: 2.2

Compound: CCCC(C)(C)c1ccc2c(c1)OC(C)(C)[C@@H]1CC=C(C)C[C@@H]21 [JWH133]
- % inhibition A1 (h) ([1]; 10 µM): -6%
- % inhibition AT2 (h) [2]: 0%
- % inhibition beta 2 (h) [3]: -15%
- % inhibition CB1 (h) [4]: 6
- % inhibition NK1 (h) [5]: 13%
- % inhibition NK3 (h) [6]: -1%
- % inhibition NOP (ORL1) (h) [7]: -5%
- % inhibition NTS1 (NT1) (h) [8]: 0%
- % inhibition P2X [9]: -5%
- % inhibition PAC1 (PACAP) (h) [10]: 12%
- % inhibition PPARα (h) ([11]; 10 µM): -25%

Compound: CN1CCCC[C@H]1Cn1cc(C(=O)c2cc([N+](=O)[O-])ccc2I)c2ccccc21 [(S)-AM1241]
- % inhibition A1 (h) ([1]; 10 µM): 14%
- % inhibition PPARα (h) ([11]; 10 µM): -18%
- % inhibition 5-HT2A (h) [12]: 67%
- % inhibition kappa (KOP) [13]: 87%
- Plasma protein binding mouse: 1.2 %free
- P-gp (ER) human [15]: 2.7

Compound: SR144528
- % inhibition A1 (h) ([1]; 10 µM): 4%
- % inhibition PPARα (h) ([11]; 10 µM): -14%

Compound: Cc1ccc2c(c1)Cc1c(C(=O)NN3CCCCC3)nn(-c3ccc(Cl)cc3Cl)c1-2 [Gp-1a]
- % inhibition A1 (h) ([1]; 10 µM): 25%
- % inhibition PPARα (h) ([11]; 10 µM): -9%
- % inhibition FP (h) [14]: 88%
- % inhibition kappa (KOP) [13]: 99%
- P-gp (ER) human [15]: 1.0

Compound: Cc1c(C(=O)c2cccc3ccccc23)c2cccc3c2n1[C@H](CN1CCOCC1)CO3 [WIN55212-2]
- % inhibition A1 (h) ([1]; 10 µM): 10%
- % inhibition PPARα (h) ([11]; 10 µM): -4%
- % inhibition FP (h) [14]: 81%
- % inhibition kappa (KOP) [13]: 79%
- Plasma protein binding mouse: 1.0 %free

Compound: COc1ccc(C(=O)c2c(C)n(CCN3CCOCC3)c3cc(I)ccc23)cc1 [AM630]
- % inhibition A1 (h) ([1]; 10 µM): 28%
- % inhibition beta 2 (h) [3]: 11%
- % inhibition PPARα (h) ([11]; 10 µM): -17%
- % inhibition FP (h) [14]: 66%
- % inhibition 5-HT2A (h) [12]: 70%
- % inhibition kappa (KOP) [13]: 57%
- Plasma protein binding mouse: 0.4 %free
- P-gp (ER) human [15]: 1.3

Compound: Cc1c(C(=O)NN2CCCCC2)nn(-c2ccc(Cl)cc2Cl)c1-c1ccc(Cl)cc1 [SR141716A]
- inhibition at 10 µM ([11]; 10 µM): -5%

Compound: CCCCCCC(C)(C)c1ccc([C@@H]2C[C@H](O)CC[C@H]2CCCO)c(O)c1 [CP55940]
- inhibition at 10 µM ([1]; 10 µM): 21%
- inhibition at 10 µM [14]: 100%
- inhibition at 10 µM [12]: 95%
- inhibition at 10 µM [13]: 74%
